Test results as given in patent US10996205B2, “Stress biomarkers and related non-invasive detection methods” (ARIZONA BOARD OF REGENTS ON BEHALF OF THE UNIVERSITY OF …, priority 2015, dated 2021).

Assay: Stability of cortisol in human eccrine sweat at room temperature
Protocol: To test the stability of cortisol in human eccrine sweat in order to improve sweat collection method and procedures, aliquots of the same sweat samples were left at room temperature for a duration of 3 hours, with each aliquots analyzed every 30 minutes in first hour and every hour afterwards.
Spiked human eccrine sweat samples were tested over a period of 3 hours at room temperature.

**Q.** What does the source list for `C[C@]12CCC(=O)C=C1CC[C@@H]1[C@@H]2[C@@H](O)C[C@@]2(C)[C@H]1CC[C@]2(O)C(=O)CO` [cortisol, 4-PREGNEN-11β, 17, 21-TRIOL-3, 20-DIONE]?
**A.** cortisol loss in spiked human eccrine sweat (period of 3 hours at room temperature): No measurable cortisol loss; Concentration (spiked sweat, 0 minutes at room temperature): 29.191 ng/mL; Concentration (spiked sweat, 30 minutes at room temperature): 36.802 ng/mL; Concentration (spiked sweat, 1 hour at room temperature): 30.807 ng/mL; Concentration (spiked sweat, 2 hours at room temperature): 30.228 ng/mL; Concentration (spiked sweat, 3 hours at room temperature): 29.515 ng/mL; Concentration (unspiked human eccrine sweat): 3.488 ng/mL
